Laboratory results reported in PMC11266668, “Unraveling the mechanism of small molecule induced activation of Staphylococcus aureus signal peptidase IB” (Communications Biology, 2024).
≈ marks a conversion by molar mass, not a printed value. Where “and” joins values, the source holds several entries; their conditions need not be identical. Equal values may be shown once.

Key:
wt SpsB [1] = molecular target: T1, wt SpsB (Staphylococcus aureus, UniProt P0A070); settings: cited from earlier work
T1 construct: recombinantly expressed full-length S. aureus SpsB (wt) or mutants; made in house; host or cells: E. coli BL21(DE3)pLysS, membrane fraction

wt SpsB [2] = molecular target: T1, wt SpsB; assay: FRET-based signal peptidase assay with membrane-bound SpsB (wt); type: biochemical, S. aureus
Description: For preparation of E. coli membrane fractions harboring overexpressed S. aureus SpsB, E. coli BL21(DE3) pLysS cells harboring pET-55-DEST-fl-SpsB or respective mutant plasmids (F67A, Y75A, F158A, Q165A, F67A-Y75A, F67A-F158A, Y75A-F158A, F67A-Y75A-F158A) were grown in LB medium (supplemented with Ampicillin (100 µg/mL) and Chloramphenicol (34 µg/mL)) at 37°C (200 rpm) to OD600 ≈ 0.6 and protein overexpression was induced by the addition of isopropyl-1-thio-β-galactopyranoside (IPTG, 0.5 mM). After incubation (22 °C, 200 rpm, 3 h), cells were harvested by centrifugation (6000 × g, 4 °C, 10 min) and subsequently washed with PBS. The cell pellet was resuspended in 5 mL Tris-HCl buffer (50 mM, pH = 7.5) and lysed using a bead beater homogenizer (3 cycles: 5500 rpm for 45 s, 30 s cooling; Precellys Ceramic Kit CK01L, 7.0 mL tubes; Precellys 24 Homogenizer, Bertin Technologies). The lysate was centrifuged (12,000 × g, 4 °C, 10 min) to remove intact cells and debris. Membranes were collected from supernatant (39,000 × g, 4 °C, 75 min) and resuspended in ice-cold sodium phosphate buffer (50 mM, pH 7.5). Protein concentration was measured using the Pierce BCA Protein assay kit (Thermo Fisher Scientific, Pierce Biotechnology) and snap-frozen aliquots were stored at −80 °C.
Signal cleavage activities of recombinantly expressed full-length S. aureus SpsB (wt) or mutants (F67A, Y75A, F158A, Q165A, F67A-Y75A, F67A-F158A, Y75A-F158A, F67A-Y75A-F158A) in E. coli membranes were measured using a Förster Resonance Energy Transfer (FRET) assay as previously described[20],[36].
A synthetic peptide substrate based on SceD modified by 4-(4- dimethylaminophenylazo)benzoic (DABCYL) acid and 5-((2-aminoethyl)amino)-1- naphthalenesulfonic acid (EDANS) was used (DABCYL-[…]-EDANS, AnaSpec) as FRET substrate. Assays were performed with overexpressed wildtype SpsB (wt) or mutant (F67A, Y75A, F158A, Q165A, F67A-Y75A, F67A-F158A, Y75A-F158A, F67A-Y75A-F158A) in E. coli membranes. As controls for background activity, respective E. coli membranes without IPTG induction were used (see Experimental procedure “Preparation of E. coli membrane (control) fractions. Membranes containing recombinant wildtype SpsB or mutant (50 µg/mL membrane concentration, 100 µL/well final volume, sodium phosphate buffer, 50 mM, pH 7.5, addition of detergent if indicated; final concentrations in buffer: 0.1% CHAPS, 0.001% NP-40 or 0.1% Tween) were pre-treated with PK150, Arylomycin A4 or DMSO as a control (final concentration 1%) at 37 °C for 5 min. After addition of FRET substrate (10 µM final substrate concentration; final DMF concentration from substrate stock 1%), fluorescence turnover was monitored by an Infinite™ M Nano Tecan 200Pro reader (340 nm excitation and 510 nm emission wavelengths, fluorescence top reading mode) at 37 °C for at least 2 h.
The assay was performed in technical triplicates for at least three biologically independent experiments (n ≥ 3). Significance of cleavage activity was determined via a two-tailed Students t-test for comparison of membranes treated with DMSO to PK150.

SpsB Q165A mutant = molecular target: T2, SpsB Q165A mutant (Staphylococcus aureus, UniProt P0A070, Q165A); assay: FRET-based signal peptidase assay with membrane-bound SpsB, Q165A mutant; type: biochemical, S. aureus; settings: 10 µM; relative to DMSO
T2 construct: recombinantly expressed full-length S. aureus SpsB (wt) or mutants; made in house; host or cells: E. coli BL21(DE3)pLysS, membrane fraction
T2 sequence (P0A070 1-191 Q165A): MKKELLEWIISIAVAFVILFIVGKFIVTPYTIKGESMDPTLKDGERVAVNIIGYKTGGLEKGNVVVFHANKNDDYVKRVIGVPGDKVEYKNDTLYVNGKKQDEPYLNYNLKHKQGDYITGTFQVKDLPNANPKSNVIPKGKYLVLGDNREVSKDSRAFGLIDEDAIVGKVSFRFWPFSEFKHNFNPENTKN
Description: Cloning of full-length SpsB (fl-SpsB) was performed using the Invitrogen Gateway Technology in previous works by Le et al.. fl-SpsB was cloned into the destination vector pET-55-DEST (Novagen) and transformed into chemically competent E. coli BL21(DE3)pLysS cells (Promega) to prevent leaky protein overexpression. Plasmid DNA of wildtype SpsB pET-55-DEST-fl-SpsB was purified using a plasmid Miniprep Kit (peqGOLD Plasmid Miniprep Kit II, VWR Peqlab) according to the manufacturer’s instructions and used as template for all single point mutations (F67A, Y75A, F158A, Q165A). […]
For preparation of E. coli membrane fractions harboring overexpressed S. aureus SpsB, E. coli BL21(DE3) pLysS cells harboring pET-55-DEST-fl-SpsB or respective mutant plasmids (F67A, Y75A, F158A, Q165A, F67A-Y75A, F67A-F158A, Y75A-F158A, F67A-Y75A-F158A) were grown in LB medium (supplemented with Ampicillin (100 µg/mL) and Chloramphenicol (34 µg/mL)) at 37°C (200 rpm) to OD600 ≈ 0.6 and protein overexpression was induced by the addition of isopropyl-1-thio-β-galactopyranoside (IPTG, 0.5 mM). […] Protein concentration was measured using the Pierce BCA Protein assay kit (Thermo Fisher Scientific, Pierce Biotechnology) and snap-frozen aliquots were stored at −80 °C. […]

S. aureus NCTC 8325 = system: S. aureus NCTC 8325; design: method as in Le et al., Nat Chem. 2020; settings: ref Le et al., Nat Chem. 2020; cited from earlier work

## O=C(Nc1ccc2c(c1)OC(F)(F)O2)Nc1ccc(Cl)c(C(F)(F)F)c1 [PK150, (4-Chloro-3-(trifluoromethyl)phenyl)-3-(2,2-difluorobenzo[d][1,3]dioxol-5-yl)urea]
Wt SpsB [1]; 50 µM compound concentration, ref Le et al., Nat Chem. 2020
  overactivation compared to DMSO: 250%
Wt SpsB [1]
  overactivation of SpsB: up to 3 fold
Wt SpsB [2]; 10 µM in E. coli induced SpsB membranes
  allosteric stimulation of SpsB activity: 170%
Wt SpsB [2]; 10 µM, relative to DMSO
  elevated activity in wildtype SpsB: 1.7 fold
Wt SpsB [2]; 0.01% Tween, 0.001% NP-40, 0.1% CHAPS (<cmc), PK150 10 µM
  activation of wt SpsB in presence of detergents: Activation of wt SpsB with PK150 could still be shown for all detergents
Wt SpsB [2]; PK150 0.195uM, replicates, read-out: wt PK150 (normalized activity)
  activity at 0.195 µM: 111%
Wt SpsB [2]; PK150 0.39uM, replicates, read-out: wt PK150 (normalized activity)
  activity at 0.39 µM: 127%
Wt SpsB [2]; PK150 1.5625uM, replicates, read-out: wt PK150 (normalized activity)
  activity at 1.5625 µM: 131%
Wt SpsB [2]; PK150 10 µM, substrate cleavage rate normalized to DMSO (100), single biological replicates
  wt PK150 10 µM norm. value: 153.034 and 181.137 and 173.665 and 173.73 and 163.958 and 182.132
Wt SpsB [2]; higher compound concentrations (Figure 3a)
  overactivation at higher compound concentrations: up to 250%
SpsB Q165A mutant
  elevated activity in Q165A mutant: 1.7 fold
S. aureus NCTC 8325
  MIC: 0.3 µM (≈ 0.118 µg/mL)

## C#CCCC1(CCOC(=O)c2ccc(NC(=O)Nc3ccc(Cl)c(C(F)(F)F)c3)cc2)N=N1 [PK150-P, 2-(3-(But-3-inyl)-3H-diazirin-3-yl)ethyl4-(3-(4-Chloro-3trifluoromethylphenyl)ureido) benzoate]
S. aureus NCTC 8325
  MIC: 1.0 µM (≈ 0.479 µg/mL)
